Molecules are shown by their SMILES. Counter-ions that a name gives are not always drawn. Like-named read-outs stand apart in the source and are kept apart here.

For data set [1], the system named is plasma proteins. The data set is described as follows: Sequential UF, plasma protein binding. The following applies: for Plasma protein binding (%): Sequential UF, rat plasma, mean (±SD).
Protocol: (§1) Rat plasma was collected from male Sprague Dawley rats purchased from Orient Bio Inc. (Seongnam, Republic of Korea). The plasma was separated from whole blood samples using centrifugation and was utilized immediately for the PPB test.
(§2) All compounds, with the exception of otaplimastat and ciclopirox, were added to 1 mL of blank plasma to achieve a drug concentration of 10 μM. Otaplimastat and ciclopirox were examined at concentrations of 5 μM and 1 μg/mL, respectively. The compound-added plasma samples were incubated in a water bath at 37 °C and agitated at 50 rpm for two hours prior to the PPB test.
(§3) A volume of 0.5 mL of the plasma sample was initially loaded onto the filter within the FT tube. The tube was then subjected to centrifugation at 14,000× g for 2 min at a temperature of 25 °C, serving as the pre-ultrafiltration (pre-UF) step.
(§4) The bound and unbound plasma fractions were subjected to linear regression analysis, with the regression line established by constraining the y-intercept to zero [14].
For data set [2] the following is noted: cited from earlier work.
Data set [3] relates to plasma proteins. The data set is described as follows: Mass balance UF, plasma protein binding. The following applies: for Plasma protein binding (%): Mass balance UF, rat plasma, mean (±SD). The protocol: Washing procedures were performed in accordance with established methods for conventional ultrafiltration. Further procedures were conducted as per the protocols outlined by Wang and Williams. […] Following centrifugation, the filter was carefully detached from the FT tube, and the filtrate was removed. The filter was then inverted and transferred to a new retentate collection tube (RT tube), where it underwent a second centrifugation at 1000× g for 2 min at 25 °C. The retentate was subsequently extracted from the RT tube (Figure 2A).
In this equation, CR and VR represent the concentration and volume of the retentate obtained from the final RT tube, while CF and VF denote the concentration and volume of the filtrate collected from the FT tube.

Another data set in a line: Log p (lipophilicity). It is filed as physicochemical. As to conditions: in-house unpublished data. The text has this: Table 2 Log p value of the test compounds. | column: Log p
In data set [4] the test system is plasma proteins. As to conditions: male, Sprague Dawley, rat, 2 h, 10 μM.
Protocol: as §1, §2, §3, §4
Data set [5] deals with plasma proteins. The data set is described as follows: Conventional UF with NSB correction using PBS, plasma protein binding. It is filed as in vitro ADME. The following applies: male, Sprague Dawley, rat plasma, conventional UF with NSB correction by PBS, mean ± SD, read-out: percentage of PPB (converted). The protocol: The device used in the experiment was Amicon® Ultra, which is commonly used in UF experiments. UF was conducted following the manufacturer's user guide. Briefly, the centrifugal filter units were washed once with 0.1N NaOH and then twice with double-distilled water by centrifugation at 14,000× g for 15 min. […] The exact process was performed using phosphate-buffered saline (PBS) instead of plasma to obtain a filtrate solution for correction with PBS [13]. […] In this equation, CSB indicates the concentration of the buffer sample, while CFB signifies the concentration of the filtrate sample derived from ultrafiltration using the buffer.

Data set [6] relates to plasma proteins. Further details: method as in PMID 11709325. As to conditions: equilibrium dialysis; cited from earlier work.
In data set [7] the test system is plasma proteins. The data set is described as follows: Conventional UF without NSB correction, plasma protein binding. It counts as in vitro ADME, rat. The following applies: male, Sprague Dawley. As to the method:
The device used in the experiment was Amicon® Ultra, which is commonly used in UF experiments. UF was conducted following the manufacturer's user guide. Briefly, the centrifugal filter units were washed once with 0.1N NaOH and then twice with double-distilled water by centrifugation at 14,000× g for 15 min. […] The exact process was performed using phosphate-buffered saline (PBS) instead of plasma to obtain a filtrate solution for correction with PBS [13].

Where [8] appears, read: male, Sprague Dawley, rat, plasma.

Turning to `Cc1cc(C2CCCCC2)n(O)c(=O)c1` [Ciclopirox], the results for the fraction unbound at 2 h, 1 μg/mL with plasma proteins [1] (setting [8]) and with plasma proteins [3] (setting [8]) were 0.0129 and 0.0285, respectively. Moreover, the Log p in data set [2] is listed as 2.73.

Consider `CCc1c2c(nc3ccc(OC(=O)N4CCC(N5CCCCC5)CC4)cc13)-c1cc3c(c(=O)n1C2)COC(=O)[C@]3(O)CC` [Irinotecan, irinotecan hydrochloride], for which, in data set [2], the Log p is listed as 4.18.

In the case of `CC(=O)N(CCCCNCCCn1c(=O)[nH]c2ccccc2c1=O)CCCn1c(=O)[nH]c2ccccc2c1=O` [Otaplimastat], the “Plasma protein binding (%)” value is 57.61 (±3.39) % with plasma proteins [1] (5 μM) and 50.63 (±11.71) % in the data set on plasma proteins [3] (5 μM). The compound further showed a Log p in the data set “Log p (lipophilicity)” of 2.67.

As to `O=c1c(O)c(-c2ccc(O)c(O)c2)oc2cc(O)cc(O)c12` [Quercetin, quercetin], the fraction unbound at 2 h, 10 μM in the data set with plasma proteins [1] (setting [8]) is 0.0008; in the data set with plasma proteins [3] (setting [8]), 0.0039. Further, the “absolute difference in PPB between sequential UF and mass balance UF” value in the data set with plasma proteins [4] is on record as 0.31%. Besides, in data set [2], the Log p was 1.82. Moreover, the “difference between CR and CF (retentate and filtrate concentration)” value with plasma proteins [3] (male, Sprague Dawley, rat, 2 h, 10 μM) was determined as 1000 fold.

As to `COC(=O)c1ccccc1-c1c2ccc(=N)cc-2oc2cc(N)ccc12` [Rhodamine 123, rhodamine 123], the fraction unbound at 2 h, 10 μM in the data set with plasma proteins [5] was 0.33; with plasma proteins [1] (setting [8]), 0.25; with plasma proteins [3] (setting [8]), 0.3; in the data set on plasma proteins [7] (rat plasma, conventional UF without NSB correction, mean ± SD, read-out: percentage of PPB (converted)), 0.103. Further, the Log p in data set [2] is on record as 1.06. For the same compound, the “protein binding, literature value” in the data set with plasma proteins [6] is 70%. The “excess of PPB by conventional UF without NSB correction over PPB with NSB correction using PBS” value with plasma proteins [7] (rat, 2 h, 10 μM) worked out at 22.6%.

As to `CCc1c2c(nc3ccc(O)cc13)-c1cc3c(c(=O)n1C2)COC(=O)[C@]3(O)CC` [SN-38], the “Plasma protein binding (%)” value with plasma proteins [1] (10 μM) is recorded as 95.47 (±0.88) %; in the data set on plasma proteins [3] (10 μM), 95.69 (±1.58) %. The Log p in data set [2] is on record as 2.31.
